Converted amounts (≈) assume the structure as drawn.

For data set [1], the system named is M. abscessus subsp. abscessus M421. The data set can be described thus: MIC, broth microdilution. Type of data set: cell-based, Mycobacterium abscessus. Conditions: Mycobacteroides abscessus, 72 h, 90% growth inhibition, 3 days. The procedure:
(§1) MIC was determined using the broth microdilution method in 96-well plates as described previously ([47]). Briefly, a 10-point 2-fold serial dilution of compounds was performed in 96-well plates (Costar 3370; Corning, USA) starting at twice the desired highest concentration. […] One hundred microliters of the bacterial suspension was seeded onto the 96-well plates containing 100 μl of the serially diluted compounds to give a final volume of 200 μl in each well with the final OD600 of 0.005. The plates were sealed with parafilm, placed onto wet paper towels in a lock-lock box and incubated for 3 days at 37°C with orbital shaking at 90 rpm. […] Absorbance values at day 3 were subtracted from the day 0 readout. Percent growth inhibition was calculated by dividing the absolute absorbance value of treated cells with untreated control and multiplying by 100. CLR was included in all MIC experiments as a positive control to monitor assay reproducibility. MIC was defined as 90% of growth inhibition relative to untreated controls.

Data set [2] deals with M. abscessus subsp. abscessus K21. The data set can be described thus: MIC, broth microdilution. Conditions: Mycobacteroides abscessus, 72 h, 90% growth inhibition, 3 days. The data set is classed as cell-based, Mycobacterium abscessus. The procedure:
as §1

In data set [3] the test system is M. abscessus subsp. abscessus M337. The data set can be described thus: MIC, broth microdilution. Type of data set: cell-based, Mycobacterium abscessus. Conditions: Mycobacteroides abscessus, 72 h, 90% growth inhibition, 3 days. The procedure:
as §1

Data set [4] concerns M. abscessus subsp. bolletii M232. Kind of data set: MIC, broth microdilution. Type of data set: cell-based, Mycobacterium abscessus. Conditions: Mycobacteroides abscessus, 72 h, 90% growth inhibition, 3 days. The procedure:
as §1

Data set [5] has as its system M. abscessus subsp. bolletii M506. The data set can be described thus: MIC, broth microdilution. The data set is classed as cell-based, Mycobacterium abscessus. Conditions: Mycobacteroides abscessus, 72 h, 90% growth inhibition, 3 days. The procedure: as §1
The subject of data set [6] is M. abscessus subsp. abscessus M404. Kind of data set: MIC, broth microdilution. The data set is classed as cell-based, Mycobacterium abscessus. Conditions: Mycobacteroides abscessus, 72 h, 90% growth inhibition, 3 days. The procedure:
as §1

Data set [7] relates to M. abscessus subsp. massiliense M111. Kind of data set: MIC, broth microdilution. The data set is classed as cell-based, Mycobacterium abscessus. The settings on record: Mycobacteroides abscessus, 72 h, 90% growth inhibition, 3 days. The procedure: as §1
In data set [8] the test system is M. abscessus subsp. bolletii CCUG 50184T. Kind of data set: MIC, broth microdilution. Type of data set: cell-based, Mycobacterium abscessus. The settings on record: Mycobacteroides abscessus, 72 h, 90% growth inhibition, 3 days. The procedure: as §1
In data set [9] the test system is M. abscessus subsp. abscessus M9. The data set can be described thus: MIC, broth microdilution. Type of data set: cell-based, Mycobacterium abscessus. The settings on record: Mycobacteroides abscessus, 72 h, 90% growth inhibition, 3 days. The procedure: as §1
The test system of data set [10] is M. abscessus subsp. massiliense CCUG 48898T. Kind of data set: MIC, broth microdilution. Type of data set: cell-based, Mycobacterium abscessus. The settings on record: Mycobacteroides abscessus, 72 h, 90% growth inhibition, 3 days. The procedure:
as §1

In data set [11] the test system is M. abscessus subsp. abscessus ATCC 19977. Kind of data set: MIC, broth microdilution. Type of data set: cell-based, Mycobacterium abscessus. Conditions: Mycobacteroides abscessus, ATCC19977, 72 h; abscessus ATCC 19977 wild type; 90% growth inhibition, 3 days. The procedure:
as §1

Data set [12] relates to M. abscessus subsp. abscessus Bamboo. The data set can be described thus: MIC, broth microdilution. The data set is classed as cell-based, Mycobacterium abscessus. Conditions: Mycobacteroides abscessus, 72 h; abscessus Bamboo wild type; 90% growth inhibition, 3 days. The procedure: as §1
The subject of data set [13] is M. abscessus subsp. abscessus M199. Kind of data set: MIC, broth microdilution. The data set is classed as cell-based, Mycobacterium abscessus. The settings on record: Mycobacteroides abscessus, 72 h, 90% growth inhibition, 3 days. The procedure:
as §1

Data set [14] can be described thus: Plasma stability. Type of data set: in vitro ADME, CD-1 mice. Conditions: mouse plasma, 37°C, 1 μg/ml. The procedure:
The plasma stability assays were carried out using plasma from female CD-1 mice, New Zealand white rabbits, rhesus monkeys, and humans containing K2EDTA anticoagulant (Bioreclamation). Stability samples consisted of 5 μl of stock compound solution in 50:50 ACN/water and 95 μl of plasma to a final concentration of 1 μg/ml. The samples were incubated at 37°C with shaking; 10 μl of plasma was removed at each time point and combined with 100 μl of ACN/methanol 50:50 protein precipitation solvent containing internal standard (10 ng/ml verapamil). Chromatography for metabolite identification was performed the same as specified for pharmacokinetic sample analysis. Full scan total ion chromatograms (TIC) of plasma extracts were acquired using a Q Exactive high-resolution mass spectrometer (QE-HRMS) at 70,000 mass resolution. Thermo Fisher Compound Discoverer software was used to assist in identifying the 844-TFM metabolites from the QE-HRMS TIC mass spectrum. Figure S2 in the supplemental material illustrates the extracted ion chromatograms (XIC) of 844-TFM and the metabolites using 5 ppm mass accuracy before and after 12 h of incubation in mouse plasma.

Data set [15] concerns M. abscessus subsp. abscessus Bamboo 844^r-3 (GyrB S473W). The data set can be described thus: MIC, resistant mutant. The data set is classed as cell-based, Mycobacterium abscessus. Conditions: Mycobacteroides abscessus.

With `COc1ccc2nccc(NC(=O)C3CCN(CCc4ccc(C(F)(F)F)cc4)CC3)c2n1` [844-TFM], the MIC is 1.6 µM (≈ 0.734 µg/mL) in data set [1]; 3.5 µM (≈ 1.6 µg/mL) in data set [2]; 3.1 µM (≈ 1.42 µg/mL) in data set [3]; 1.6 µM (≈ 0.734 µg/mL) in [4]; 3.1 µM (≈ 1.42 µg/mL) in data set [5]; 1.6 µM (≈ 0.734 µg/mL) in [6]. In addition, the minimal inhibitory concentration (MIC) stood at 6.3 µM (≈ 2.89 µg/mL) in data set [7]; 2 µM (≈ 0.917 µg/mL) in [8]; 3.1 µM (≈ 1.42 µg/mL) in data set [9]; 2 µM (≈ 0.917 µg/mL) in [10]; 1.5 µM (≈ 0.688 µg/mL) in data set [11]; 1.5 µM (≈ 0.688 µg/mL) in [12]. Further, the MIC in data set [13] worked out at 6.3 µM (≈ 2.89 µg/mL); in data set [15], 5 µM (≈ 2.29 µg/mL). The stability in plasma result in data set [14] is on record as “rapidly degraded”.

The values above are taken from paper PMC8284461, “Piperidine-4-Carboxamides Target DNA Gyrase in Mycobacterium abscessus” (Antimicrobial Agents and Chemotherapy, 2021).
